Measurements: patent US9975888B2, “Aryl linked imidazole and triazole derivatives and methods of use thereof for improving the pharmacokinetics of a drug” (MERCK SHARP & DOHME CORP., priority 2013, dated 2018)

Columns and labels:
Type in all cases: biochemical
[1] = molecular target: T1, CYP1A2 (Homo sapiens, UniProt P05177); assay: Cocktail assay for CYPs, phenacetin O-deethylation (CYP1A2), human liver microsomes; conditions: 10 μM phenacetin, 0.1 mg/mL human liver microsomes, 10 min at 37° C.; read-out: CYP IC50 (nM) 1A2
T1 construct: 0.1 mg/mL protein human liver microsomes (BD Gentest); tissue BD Gentest; host or cells: human liver microsomes
T1 sequence (P05177 1-516): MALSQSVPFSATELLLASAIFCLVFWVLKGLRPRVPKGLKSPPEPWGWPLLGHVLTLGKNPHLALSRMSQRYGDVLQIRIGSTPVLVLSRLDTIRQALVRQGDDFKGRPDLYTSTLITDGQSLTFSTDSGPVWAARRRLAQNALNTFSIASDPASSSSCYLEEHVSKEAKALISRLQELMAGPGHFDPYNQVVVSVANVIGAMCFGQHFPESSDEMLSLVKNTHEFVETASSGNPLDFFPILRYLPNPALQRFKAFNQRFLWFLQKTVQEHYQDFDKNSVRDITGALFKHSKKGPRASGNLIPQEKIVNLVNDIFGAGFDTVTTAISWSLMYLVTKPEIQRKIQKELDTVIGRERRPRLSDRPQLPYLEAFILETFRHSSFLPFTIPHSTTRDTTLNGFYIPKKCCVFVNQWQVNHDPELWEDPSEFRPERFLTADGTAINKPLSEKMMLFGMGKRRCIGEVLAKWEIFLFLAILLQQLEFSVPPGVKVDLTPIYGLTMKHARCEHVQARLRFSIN
Experimental: (§1) Determination of IC50 in a Cocktail Assay for CYPs 1A2, 2C9, 2C19, 2D6 and 3A4:
(§2) This assay was performed in a standard 96-well plate design. IC50 values were calculated from the percent inhibition observed for each test compound at 6 concentrations (for example, 0.0032, 0.016, 0.08, 0.4, 2 and 10 μM). The incubation substrate mix contains 10 μM phenacetin (1A2), 5 μM diclofenac (2C9), 30 μM mephenytoin (2C19), 5 μM dextromethorphan (2D6) and 2 μM midazolam (3A4), 0.1 mg/mL protein human liver microsomes (BD Gentest), 1 mM NAPDH, 3.3 mM MgCl2 and 100 mM potassium phosphate buffer (pH 7.4). The production of the metabolite of each probe substrate was determined after incubation for 10 min at 37° C. Quantitation of the metabolite peak area ratio against an internal standard (tolbutamide) was determined by LC/MS/MS analysis following acetonitrile treatment of the incubations.
(§3) Samples were analyzed in the MRM mode with a SCIEX API-4000 mass spectrometer (Applied Biosystems, Foster City, Calif.), with a Shimadzu LC-20 AD pump (Shimadzu corporation, Kyoto, JP) and a CTC PAL autosampler (Agilent Technologies, Switzerland). A Phenomenex, Luna, 5 nm, 100 A, 2.00×30 mm HPLC column was used for the separation. The mobile phases were: (A) 0.1% formic acid in water and (B) 0.1% formic acid in acetonitrile. The binary gradient was as follows.
(§4) The peak area ratio of the analyte to the internal standard was used to quantify the metabolite. The values of peak area ratios in the presence of test compound were compared to those of maximum or minimum controls and were expressed as % inhibition by interpolating between the maximum and minimum peak area ratios. Incubations with no inhibitor were defined as the maxima. The following equation was used to calculate the % inhibition: [1−[(X−Low control)/(High control−Low control)]]*100 For the IC50 calculation, SigmaPlot was used to plot the mean % inhibition versus the test compound concentrations and for non-linear regression analysis of the data. Depending on the range of data points defining the inhibition curve, the data may have been fit to the 4-parameter logistic equation.

[2] = molecular target: T2, CYP2C9 (Homo sapiens, UniProt P11712); assay: Cocktail assay for CYPs, diclofenac 4′-hydroxylation (CYP2C9), human liver microsomes; conditions: 5 μM diclofenac, 0.1 mg/mL human liver microsomes, 10 min at 37° C.; read-out: CYP IC50 (nM) 2C9
T2 construct: 0.1 mg/mL protein human liver microsomes (BD Gentest); tissue BD Gentest; host or cells: human liver microsomes
T2 sequence (P11712 whole entry): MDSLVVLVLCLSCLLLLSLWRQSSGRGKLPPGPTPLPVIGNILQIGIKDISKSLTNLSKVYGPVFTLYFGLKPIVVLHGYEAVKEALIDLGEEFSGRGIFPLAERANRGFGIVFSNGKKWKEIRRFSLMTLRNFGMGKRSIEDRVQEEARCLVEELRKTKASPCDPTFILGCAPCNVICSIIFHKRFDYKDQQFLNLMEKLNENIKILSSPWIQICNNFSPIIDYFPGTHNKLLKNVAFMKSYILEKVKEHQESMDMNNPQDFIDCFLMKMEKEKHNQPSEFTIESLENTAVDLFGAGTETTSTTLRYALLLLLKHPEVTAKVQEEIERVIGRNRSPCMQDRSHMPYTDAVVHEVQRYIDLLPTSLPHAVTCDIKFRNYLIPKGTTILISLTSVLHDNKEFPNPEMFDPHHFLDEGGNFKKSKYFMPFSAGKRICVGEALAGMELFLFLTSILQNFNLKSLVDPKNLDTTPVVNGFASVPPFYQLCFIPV
Experimental: as §1
as §2, with “IC50 values were calculated from the percent inhibition observed for each test compound at 6 concentrations (for example, 0.0032, 0.016, 0.08, 0.4, 2 and 10 μM).” left out
as §3, §4

[3] = molecular target: T3, CYP2C19 (Homo sapiens, UniProt P33261); assay: Cocktail assay for CYPs, mephenytoin 4′-hydroxylation (CYP2C19), human liver microsomes; conditions: 30 μM mephenytoin, 0.1 mg/mL human liver microsomes, 10 min at 37° C.; read-out: CYP IC50 (nM) 2C19
T3 construct: 0.1 mg/mL protein human liver microsomes (BD Gentest); tissue BD Gentest; host or cells: human liver microsomes
T3 sequence (P33261 whole entry): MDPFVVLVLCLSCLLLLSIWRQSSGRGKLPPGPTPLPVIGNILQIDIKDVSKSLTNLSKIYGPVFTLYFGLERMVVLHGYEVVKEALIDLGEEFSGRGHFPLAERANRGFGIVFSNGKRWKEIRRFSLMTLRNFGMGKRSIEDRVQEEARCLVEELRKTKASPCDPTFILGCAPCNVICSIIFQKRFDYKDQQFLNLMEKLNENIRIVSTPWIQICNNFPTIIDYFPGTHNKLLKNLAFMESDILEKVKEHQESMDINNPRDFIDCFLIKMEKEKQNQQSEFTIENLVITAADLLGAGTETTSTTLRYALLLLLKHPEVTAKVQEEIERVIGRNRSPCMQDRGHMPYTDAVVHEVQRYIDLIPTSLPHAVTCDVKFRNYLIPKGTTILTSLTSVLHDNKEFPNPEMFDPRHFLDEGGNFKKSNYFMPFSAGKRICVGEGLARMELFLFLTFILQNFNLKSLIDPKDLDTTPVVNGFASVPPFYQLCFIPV
Experimental: as §1
as §2, with “IC50 values were calculated from the percent inhibition observed for each test compound at 6 concentrations (for example, 0.0032, 0.016, 0.08, 0.4, 2 and 10 μM).” left out
as §3, §4

[4] = molecular target: T4, CYP2D6 (Homo sapiens, UniProt P10635); assay: Cocktail assay for CYPs, dextromethorphan O-demethylation (CYP2D6), human liver microsomes; conditions: 5 μM dextromethorphan, 0.1 mg/mL human liver microsomes, 10 min at 37° C.; read-out: CYP IC50 (nM) 2D6
T4 construct: 0.1 mg/mL protein human liver microsomes (BD Gentest); tissue BD Gentest; host or cells: human liver microsomes
T4 sequence (P10635 whole entry): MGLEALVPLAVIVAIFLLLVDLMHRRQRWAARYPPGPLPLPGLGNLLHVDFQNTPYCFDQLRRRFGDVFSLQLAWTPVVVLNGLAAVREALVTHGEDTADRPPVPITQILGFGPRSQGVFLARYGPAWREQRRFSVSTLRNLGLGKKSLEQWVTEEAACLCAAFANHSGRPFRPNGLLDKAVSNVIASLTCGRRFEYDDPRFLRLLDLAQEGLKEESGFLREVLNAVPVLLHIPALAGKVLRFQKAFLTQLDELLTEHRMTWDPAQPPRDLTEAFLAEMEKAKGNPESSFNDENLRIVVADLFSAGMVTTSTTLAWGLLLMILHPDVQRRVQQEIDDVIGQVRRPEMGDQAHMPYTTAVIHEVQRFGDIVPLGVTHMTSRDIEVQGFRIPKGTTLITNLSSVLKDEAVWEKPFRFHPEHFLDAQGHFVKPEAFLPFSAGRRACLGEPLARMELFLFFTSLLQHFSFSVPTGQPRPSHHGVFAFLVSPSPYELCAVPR
Experimental: as §1, §2, §3, §4

[5] = molecular target: T5, CYP3A4 (Homo sapiens, UniProt P08684); assay: Cocktail assay for CYPs, midazolam 1′-hydroxylation (CYP3A4), human liver microsomes; parameters: 0.1 mg/mL protein human liver microsomes (BD Gentest); tissue BD Gentest; host or cells: human liver microsomes; conditions: 2 μM midazolam, 0.1 mg/mL human liver microsomes, 10 min at 37° C.; read-out: CYP IC50 (nM) 3A4 (MDZ)
Experimental: as §1, §2, §3, §4
Target sequence in this assay (P08684 whole entry): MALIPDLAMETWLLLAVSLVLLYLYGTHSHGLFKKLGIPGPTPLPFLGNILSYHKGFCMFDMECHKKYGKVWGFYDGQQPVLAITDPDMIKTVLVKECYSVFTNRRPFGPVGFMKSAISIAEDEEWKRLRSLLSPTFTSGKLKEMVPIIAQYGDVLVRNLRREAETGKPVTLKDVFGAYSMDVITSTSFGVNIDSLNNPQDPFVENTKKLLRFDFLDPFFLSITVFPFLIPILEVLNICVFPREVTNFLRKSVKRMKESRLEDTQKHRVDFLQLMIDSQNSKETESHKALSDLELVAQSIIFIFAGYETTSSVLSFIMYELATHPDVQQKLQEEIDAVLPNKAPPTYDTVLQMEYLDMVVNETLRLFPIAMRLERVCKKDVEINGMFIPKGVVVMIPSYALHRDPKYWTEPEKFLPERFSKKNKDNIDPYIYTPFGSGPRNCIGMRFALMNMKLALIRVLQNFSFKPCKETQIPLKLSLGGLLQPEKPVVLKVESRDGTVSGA

[6] = molecular target: T5, CYP3A4; assay: IC50 vs CYP3A by inhibition of lopinavir metabolism in human liver microsomes; parameters: 0.01 mg/mL protein human liver microsomes (BD Gentest); tissue BD Gentest; host or cells: human liver microsomes; conditions: 1.5 μM lopinavir, 0.01 mg/mL human liver microsomes, 8 min at 37° C.; read-out: CYP IC50 (nM) 3A4 (LPV)
Experimental: Determination of IC50 vs CYP3A by Measurement of Inhibition of Lopinavir Metabolism
This assay was performed in a standard 96-well plate design. IC50 values were calculated from the percent inhibition observed for each test compound at 6 concentrations (for example, 0.098, 0.391, 1.56, 6.25, 25 and 100 nM). The incubation substrate mix contains 1.5 μM lopinavir, 0.01 mg/mL protein human liver microsomes (BD Gentest), 1 mM NAPDH, 3.3 mM MgCl2 and 100 mM potassium phosphate buffer (pH 7.4). The production of the sum of three hydroxylated metabolites (M2: 6-hydroxy lopinavir, M3: 4-hydroxy lopinavir, M4: 4-hydroxy lopinavir (epimer of M3), Kumar et al., 1999) was determined after incubation for 8 min at 37° C. Quantitation of the metabolite peak area ratio against an internal standard (tolbutamide) was determined by LC/MS/MS analysis following acetonitrile treatment of the incubations.
as §3, with “μm,” for “nm,”
Target sequence in this assay (P08684 2-503): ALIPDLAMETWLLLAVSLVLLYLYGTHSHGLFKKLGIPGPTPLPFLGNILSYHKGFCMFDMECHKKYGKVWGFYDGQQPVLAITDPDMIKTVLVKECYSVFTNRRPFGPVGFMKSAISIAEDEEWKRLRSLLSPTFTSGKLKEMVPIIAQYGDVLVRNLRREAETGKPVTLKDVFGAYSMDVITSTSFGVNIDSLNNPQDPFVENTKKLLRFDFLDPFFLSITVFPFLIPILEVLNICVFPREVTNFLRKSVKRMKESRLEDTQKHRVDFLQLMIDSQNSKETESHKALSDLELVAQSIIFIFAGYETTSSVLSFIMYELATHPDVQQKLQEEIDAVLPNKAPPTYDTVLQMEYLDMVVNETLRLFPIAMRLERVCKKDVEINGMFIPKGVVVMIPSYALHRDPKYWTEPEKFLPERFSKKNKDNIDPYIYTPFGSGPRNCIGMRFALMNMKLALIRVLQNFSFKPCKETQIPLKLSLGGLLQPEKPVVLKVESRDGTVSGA
The peak area ratio of the analyte to the internal standard was used to quantify the metabolite. The values of peak area ratios in the presence of test compound were compared to those of maximum or minimum controls and were expressed as % inhibition by interpolating between the maximum and minimum peak area ratios. Incubations with no inhibitor were defined as the maxima and with 5 μM ketoconazole were defined as the minima.
The following equation was used to calculate the % inhibition: [1−[(X−Low control)/(High control−Low control)]]*100
For the IC50 calculation, SigmaPlot was used to plot the mean % inhibition versus the test compound concentrations and for non-linear regression analysis of the data. Depending on the range of data points defining the inhibition curve, the data may have been fit to the 4-parameter logistic equation.

SMILES | IC50 [1] [nM] | IC50 [2] [nM] | IC50 [3] [nM] | IC50 [4] [nM] | IC50 [5] [nM] | IC50 [6] [nM]
CN(C)c1ccc(S(=O)(=O)N2CCc3c(cccc3-c3cncn3CCc3ccc(F)cc3)C2)cn1 [Compound 61, 5-((5-(1-(4-fluorophenethyl)-1H-imidazol-5-yl)-3,4-dihydroisoquinolin-2(1H)-yl)sulfonyl)-N,N-dimethyl-pyridin-2-amine] | 4620 | 1050 | 65 | 3250 | 7.6 | 1.4
O=C(c1cccnc1)N1CCCC1c1cccc(-c2cncn2CCc2ccc(F)cc2)c1 (single isomer, unassigned) [Compound 48a, (R or S)-(2-(3-(1-(4-fluorophenethyl)-1H-imidazol-5-yl)phenyl)pyrrolidin-1-yl) (pyridin-3-yl) methanone] | 9300 | > 10000 | 5430 | 6800 | 24.2 | 32.3
CS(=O)(=O)N1CCCC1c1ccccc1-c1cncn1CCc1ccc(F)cc1 (single isomer, unassigned) [Compound 23a, (R or S)-1-(4-fluorophenethyl)-5-(2-(1-(methylsulfonyl)pyrrolidin-2-yl)phenyl)-1H-imidazole] | > 10000 | > 10000 | 6920 | 6720 | 36.4 | 58.5
CC(=O)Nc1ncc(S(=O)(=O)NC2(c3ccc(-c4cncn4[C@H](C)c4ccc(F)cc4)cc3)CC2)s1 [Compound 10, (R)—N-(5-(N-(1-(4-(1-(1-(4-fluorophenyl)ethyl)-1H-imidazol-5-yl)phenyl)cyclopropyl)sulfamoyl)thiazol-2-yl)acetamide] | 8480 | > 10000 | > 10000 | 9200 | 192 | > 100
O=S(=O)(NCc1ccccc1-c1cncn1CCc1ccc(F)cc1)c1cnc(N2CCN3C[C@H](O)C[C@H]3C2)s1 [Compound 19, N-(2-(1-(4-fluorophenethyl)-1H-imidazol-5-yl)benzyl)-2-((7R,8aS)-7-hydroxyhexahydropyrrolo[1,2-a]pyrazin-2 (1H)-yl)thiazole-5-sulfonamide] | > 10000 | 6270 | > 10000 | 3200 | 9.5 | 16.4

The remaining lines, values ahead:

IC50 [1] [nM] | IC50 [2] [nM] | IC50 [3] [nM] | IC50 [4] [nM] | IC50 [5] [nM] | IC50 [6] [nM] | SMILES
> 10000 | > 10000 | > 10000 | 1830 | 64.4 | ≥ 100 | O=C(c1cccnc1)N1CCCC1c1ccccc1-c1cncn1CCc1ccc(F)cc1 (single isomer, unassigned) [Compound 42a, (R or S)-(2-(2-(1-(4-fluorophenethyl)-1H-imidazol-5-yl)phenyl)pyrrolidin-1-yl) (pyridin-3-yl) methanone]
1450 | 10 | 44 | 765 | 11 | 2.3 | CC(=O)Nc1ncc(S(=O)(=O)N2CCc3cc(-c4cncn4CCc4ccc(F)cc4)ccc3C2)s1 [Compound 1, N-(5-((6-(1-(4-fluorophenethyl)-1H-imidazol-5-yl)-3,4-dihydroisoquinolin-2(1H)-yl)sulfonyl)thiazol-2-yl)acetamide]
5890 | 4410 | 4190 | 4050 | 13.7 | 5.6 | CC(=O)Nc1ncc(S(=O)(=O)N2CCCC2c2ccccc2-c2cncn2CCc2ccc(F)cc2)s1 (stereo not drawn) [Compound 21, N-(5-((2-(2-(1-(4-fluorophenethyl)-1H-imidazol-5-yl)phenyl)pyrrolidin-1-yl)sulfonyl)thiazol-2-yl) acetamide]
3400 | 798 | 452 | 4150 | 18.8 | 11.8 | CC(C)OC(=O)N1CCCC1c1cccc(-c2cncn2CCc2ccc(F)cc2)c1 (stereo not drawn) [Compound 56, Isopropyl 2-(3-(1-(4-fluorophenethyl)-1H-imidazol-5-yl)phenyl) pyrrolidine-1-carboxylate]
> 10000 | 4300 | > 10000 | 2530 | 22 | 14 | CC(NS(=O)(=O)c1cnc(N2CCN(C)CC2)s1)c1ccc(-c2cncn2CCc2ccc(F)cc2)cc1 (stereo not drawn) [Compound 3, N-(1-(4-(1-(4-fluorophenethyl)-1H-imidazol-5-yl)phenyl)ethyl)-2-(4-methylpiperazin-1-yl)thiazole-5-sulfonamide]
